These results are taken from PubChem BioAssay (NCI).

Among the test systems are KM20L2 colon; M19-MEL melanoma; HOP-18 NSCLC; DMS 273 small cell lung; DMS 114 small cell lung; LXFL 529 NSCLC; XF 498 CNS; RXF-631 renal; MDA-N.
Assay in all cases: inhibition of tumour cell growth, NCI panel, 48 h

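Growth conditions: 96-well plates. Treatment: test compound, 48 hours, 5 concentrations. Analysis: linear interpolation between bracketing concentrations; unreached endpoints set to highest concentration. The concentration for 50% growth inhibition is given as GI50. TGI: concentration producing complete growth inhibition.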 Where only a bound is given, the exact number is not on record here.

As for `CC(=O)[CH-]C(=O)c1ccccc1.CC(=O)[CH-]C(=O)c1ccccc1.O=S(=O)([O-])c1cc([O-])c2c([O-])cc(S(=O)(=O)[O-])cc2c1.[Na+].[Zr+4]`, in the assay on KM20L2 colon, the GI50 was over 100 µM and the TGI was over 100 µM.

As to `Cc1nc2c(o1)C(=Nc1ccccc1)c1nc(C)oc1C2=Nc1ccccc1`, the TGI came to 70 µM with KM20L2 colon; 47.6 µM in the assay with M19-MEL melanoma; 52.9 µM in the assay with HOP-18 NSCLC; 50.5 µM in the assay with DMS 273 small cell lung; 60.4 µM with DMS 114 small cell lung; 45.1 µM in the assay on LXFL 529 NSCLC. This compound returned a TGI in the assay on XF 498 CNS of 33.2 µM.

Consider `Nc1ccccc1C(=O)CCC1C(=O)NC(=S)NC1=O`, for which the TGI with KM20L2 colon, with M19-MEL melanoma, with HOP-18 NSCLC, in the assay with DMS 273 small cell lung, with DMS 114 small cell lung and in the assay with LXFL 529 NSCLC was over 100 µM throughout. Also, the TGI with RXF-631 renal and in the assay on MDA-N was over 100 µM each time.

In the case of `COC1OC2COC(C)(C)OC2C(OC(C)=O)C1NC(=O)N(CCCl)N=O` (stereo not given), the TGI in the assay with KM20L2 colon, in the assay on M19-MEL melanoma, in the assay with HOP-18 NSCLC, with DMS 273 small cell lung, with DMS 114 small cell lung and in the assay with LXFL 529 NSCLC was over 100 µM throughout. For the same compound, the TGI in the assay on XF 498 CNS was over 100 µM.

In the case of `Cc1cc(=O)n(-c2cc3cccccc-3n2)[nH]1`, the TGI in the assay on KM20L2 colon was over 100 µM; in the assay on M19-MEL melanoma, 22.3 µM; in the assay with HOP-18 NSCLC, 85.2 µM; with DMS 114 small cell lung, 7.73 µM; in the assay on LXFL 529 NSCLC, 16.9 µM; in the assay with XF 498 CNS, 7.46 µM.

Regarding `CC(=O)[C@H]1CCC2[C@@H]3CC=C4C[C@@H]([O-])CC[C@]4(C)C3CC[C@@]21C.CC(=O)[C@H]1CCC2[C@@H]3CC=C4C[C@@H]([O-])CC[C@]4(C)C3CC[C@@]21C.CC(=O)[CH-]C(=O)c1ccccc1.CC(=O)[CH-]C(=O)c1ccccc1.Cl.[Ti+4]` (stereo not given in full), the GI50 in the assay on KM20L2 colon was 10.8 µM; with M19-MEL melanoma, 43.5 µM; in the assay on HOP-18 NSCLC it was 42.9 µM; in the assay on DMS 273 small cell lung, 30.3 µM; in the assay with LXFL 529 NSCLC, 32.1 µM. Moreover, the TGI in the assay with KM20L2 colon, in the assay on M19-MEL melanoma, in the assay on HOP-18 NSCLC, in the assay with DMS 273 small cell lung and with LXFL 529 NSCLC was over 100 µM each time.

On to `CN(/N=C/c1ccnc2ccccc12)c1c([N+](=O)[O-])cc([N+](=O)[O-])cc1[N+](=O)[O-]`, for which the TGI in the assay on KM20L2 colon, in the assay with M19-MEL melanoma, in the assay with HOP-18 NSCLC, with DMS 273 small cell lung, with DMS 114 small cell lung and in the assay on LXFL 529 NSCLC was over 100 µM throughout. This compound also registered a TGI in the assay on XF 498 CNS of over 100 µM.

Consider `O=C(/C=C\c1cccc2ccccc12)c1ccc(Cl)cc1Cl`, for which the TGI with KM20L2 colon was 91.8 µM; with M19-MEL melanoma, 35.9 µM; in the assay with HOP-18 NSCLC it was 48.1 µM; in the assay on DMS 273 small cell lung, 34.8 µM; in the assay on DMS 114 small cell lung it was 30.8 µM; in the assay on LXFL 529 NSCLC, 32.8 µM. In the assay with RXF-631 renal, the TGI was 74.3 µM.

For `COC(=O)C1=CC2C=CC(C1C(=O)OC)C1C(C(=O)OC)=C(C(=O)OC)C(C(=O)OC)=C(C(=O)OC)C21OC` (stereo not given), the TGI in the assay on KM20L2 colon, in the assay on M19-MEL melanoma, in the assay with HOP-18 NSCLC, in the assay with DMS 273 small cell lung, in the assay with DMS 114 small cell lung and in the assay on LXFL 529 NSCLC was over 100 µM in each case. For the same compound, the TGI in the assay on RXF-631 renal was over 100 µM.

`O=C1C=CC(=O)c2c(O)c3c(c(O)c21)C[C@H](O)[C@H](O)[C@@H]3O` gave a TGI with MDA-N of 2.95 µM.

Turning to `COc1cc(/C=N/N=C(\N)NO)c(Cl)cc1O`, the TGI in the assay on M19-MEL melanoma, with DMS 114 small cell lung and in the assay with LXFL 529 NSCLC was over 100 µM in each case.

As for `O=C1c2ccccc2C2CCC1c1ccccc12` (stereo not given), the TGI in the assay on KM20L2 colon is over 100 µM; in the assay on M19-MEL melanoma it was 96.1 µM; with HOP-18 NSCLC, over 100 µM; with DMS 273 small cell lung, 71.4 µM; in the assay on DMS 114 small cell lung, 57 µM; in the assay with LXFL 529 NSCLC, over 100 µM. In addition, the TGI in the assay with XF 498 CNS was determined as 91.6 µM.

In the assay with MDA-N, `CCOC(=O)C(C#N)C1=CC(=O)C(=O)c2ccc(O)cc21` (stereo not given) returned a TGI of 32.7 µM.

As for `CCc1nc2ccc(N=Nc3c(O)ccc4ccccc34)cc2[nH]1`, the TGI was 36.9 µM in the assay with KM20L2 colon; 33.8 µM in the assay with M19-MEL melanoma; 35.3 µM in the assay with DMS 273 small cell lung; 35.1 µM with DMS 114 small cell lung; 24.5 µM in the assay with LXFL 529 NSCLC; 51.5 µM in the assay on MDA-N.

In the case of `CN(/N=C\c1ccnc2ccccc12)c1ccc([N+](=O)[O-])cc1`, the TGI in the assay with KM20L2 colon, in the assay on M19-MEL melanoma, in the assay on DMS 273 small cell lung, in the assay on LXFL 529 NSCLC, in the assay with RXF-631 renal and in the assay with XF 498 CNS was over 100 µM each time.

With `CC(=O)[CH-]C(=O)c1ccccc1.CC(=O)[CH-]C(=O)c1ccccc1.CC(=O)[CH-]C(=O)c1ccccc1.[Nd+3].[OH3+]`, the GI50 in the assay with KM20L2 colon is 38 µM; with M19-MEL melanoma it was 31.4 µM; in the assay on LXFL 529 NSCLC, 71.1 µM. Also, the TGI in the assay with KM20L2 colon, in the assay on M19-MEL melanoma and in the assay with LXFL 529 NSCLC was over 100 µM each time.

In the assay with MDA-N, `NS(=O)(=O)c1cc(C(=O)O)c(O)c2ccccc12` showed a TGI of over 100 µM.

As to `COC(=O)[C@@H]1Cc2c([nH]c3ccccc23)[C@H](c2ccccc2)N1`, the TGI with KM20L2 colon is over 100 µM; with M19-MEL melanoma, over 100 µM; in the assay on HOP-18 NSCLC, over 100 µM; with DMS 273 small cell lung, 57.8 µM; with DMS 114 small cell lung, 84 µM; with LXFL 529 NSCLC, over 100 µM.

Take `Clc1cccc(C2N3CCCCC3[C@@H]3c4[nH]c5ccccc5c4CCN23)c1` (stereo not given in full): the TGI was over 100 µM in the assay on KM20L2 colon; 48 µM with M19-MEL melanoma; over 100 µM with HOP-18 NSCLC; over 100 µM with DMS 273 small cell lung; 55.6 µM in the assay on DMS 114 small cell lung; 40 µM in the assay on XF 498 CNS.

On to `O=C(Nc1ccc(Cl)c(Cl)c1)C(=O)C(C(=O)c1ccccc1-c1ccccc1)C1OC(=O)c2ccccc21` (stereo not given), for which the TGI in the assay with KM20L2 colon was determined as 52.7 µM; with M19-MEL melanoma it was 33.9 µM; with DMS 114 small cell lung it was 27 µM; in the assay with LXFL 529 NSCLC it was 21 µM; with RXF-631 renal, 37.7 µM; in the assay on XF 498 CNS it was 26.5 µM.

With `C/C=C1/CC(C)C(C)(O)C(=O)OCC2C(O)CN3CCC(OC1=O)C23` (stereo not given), in the assay on MDA-N, the TGI is over 100 µM.

Take `CCCCCC/C=C\CCCCCCCCCC1=C(CN2CCN(C)CC2)C(=O)C=C(OC)C1=O`: the TGI in the assay on MDA-N turned out to be 21.1 µM.

In the assay on MDA-N, `O=C1O/C(=C/c2ccccc2)C(c2ccccc2)=C1O` gave a TGI of over 100 µM.

As for `NC1=NN(c2ccccc2)C(=O)C1C(=O)C(=O)Nc1ccc(Cl)c(Cl)c1` (stereo not given), the TGI with KM20L2 colon, in the assay with M19-MEL melanoma, in the assay on HOP-18 NSCLC, with DMS 273 small cell lung, in the assay with DMS 114 small cell lung and in the assay with RXF-631 renal was over 100 µM each time.

On to `O=[N+]([O-])c1cc([N+](=O)[O-])c(Nn2c3ccccc3c3ccccc32)c([N+](=O)[O-])c1`, for which the TGI with MDA-N was determined as 12.2 µM.

As for `Cn1c2c(c3ccccc31)CCN1C(=O)CCC21` (stereo not given), the TGI in the assay on MDA-N is over 10 µM.

For the compound `COc1c(-c2ccccc2)nc2ccc(Oc3ccccc3)nn12`, the TGI in the assay on KM20L2 colon is over 100 µM; in the assay on M19-MEL melanoma it was over 100 µM; with HOP-18 NSCLC, over 87.1 µM; in the assay with DMS 273 small cell lung it was over 100 µM; in the assay on DMS 114 small cell lung, over 87.7 µM; in the assay with LXFL 529 NSCLC it was over 100 µM. In the assay on XF 498 CNS, the TGI amounted to 66.9 µM.

In the case of `CCCCCCCCCC[C@H](O)[C@H](O)CC[C@@H](O)[C@H]1CC[C@@H]([C@H]2CC[C@H](CCCCCCC[C@@H](O)CC3=C[C@H](C)OC3=O)O2)O1`, in the assay on MDA-N, the GI50 was 17.5 µM and the TGI is 53 µM.

Turning to `Clc1cccc(-c2nnc(-c3nn(-c4ccccc4)c4nc5ccccc5nc34)o2)c1`, the TGI in the assay on KM20L2 colon, in the assay on M19-MEL melanoma, in the assay with HOP-18 NSCLC, with DMS 273 small cell lung, in the assay on DMS 114 small cell lung and with LXFL 529 NSCLC was over 100 µM throughout. In the assay on XF 498 CNS, this compound yielded a TGI of over 100 µM.

`CCNC(=O)OCc1c(COC(=O)NCC)c(-c2ccc(Cl)c(Cl)c2)n2c1CCC2`: the TGI in the assay on KM20L2 colon amounted to 68.3 µM; with M19-MEL melanoma, 58.1 µM; with DMS 273 small cell lung, 31.1 µM; with DMS 114 small cell lung it was 25.4 µM; in the assay on LXFL 529 NSCLC it was 34.8 µM; in the assay with XF 498 CNS, 36.3 µM.

For `CC(=O)NNc1nc(C)c(C(/C=C/c2ccccc2O)=N/N=C(N)N)s1`, the TGI with MDA-N was over 100 µM.

Regarding `O=c1c(Cl)c(Cl)cnn1CCCl`, the TGI in the assay on KM20L2 colon was found to be 27.2 µM; in the assay on M19-MEL melanoma, 8.75 µM; in the assay on DMS 273 small cell lung, 21 µM; in the assay with DMS 114 small cell lung it was 18.9 µM; in the assay with LXFL 529 NSCLC, 3.1 µM; in the assay with XF 498 CNS, 11.7 µM.

As for `N#CC(C(=O)/C(=N\NC(N)=O)C(C#N)c1ccccc1)c1ccccc1` (stereo not given), the TGI in the assay on KM20L2 colon, in the assay on DMS 273 small cell lung, in the assay on LXFL 529 NSCLC and in the assay with RXF-631 renal was over 100 µM in each case.

For `CC1=CC(C)(C)NN1C1=NS(=O)(=O)c2ccccc2N1C`, in the assay on MDA-N, the TGI is over 100 µM.
